Assay results published in US20060228706A1, “Methods of diagnosing and treating diabetes and insulin resistance” (Metabolex, Inc., priority 2002, published 2006).
Several values for one entry are separate records, joined by “and”; a condition that tells them apart may be missing. Equal values may be shown once.

Experiments:
[1] = target: T1, hP2RY1 (Homo sapiens, UniProt P47900); test: Glucose transport analysis in L6 myotubes over-expressing hP2RY1 (adenovirus); format: cell-based
T1 construct: expressed in transfected cells; host or cells: differentiated murine 3T3-L1 adipocytes (A2) or differentiated L6 myotubes (A4), infected with recombinant adenovirus
Method: (§1) In some instances another analysis called “glucose transport” was used. This involves over-expressing the gene in either differentiated 3T3-L1 adipocytes or differentiated L6 myotubes and then monitoring the ability of insulin to stimulate glucose transport into these two cell types. A recombinant adenovirus encoding the human gene tagged with a FLAG epitope tag was prepared essentially as described in Zhou et al., Proc. Nat. Acad. Sci. USA. 95:2509-2514 (1998). 3T3-L1 adipocytes or L6 myotubes were infected with recombinant adenovirus expressing the human gene. A virus expressing an irrelevant protein was used as the control. Twenty four hours post infection the cells are stimulated with increasing concentrations of insulin and glucose transport into the cells determined by the counting the accumulation of a radiolabelled glucose analog (2-deoxyglucose) essentially as described in Kotani et al., Mol. Cell. Biol. 18:6971-6982 (1998), Fujishiro et al., J. Biol. Chem. 276:19800-19806 (2001), Ross et al., Biochem. Biophys. Res. Commun. 302:354-358 (2003)

[2] = target: T1, hP2RY1; test: Glucose transport analysis in 3T3-L1 adipocytes over-expressing hP2RY1 (adenovirus); format: cell-based
Method: as §1

[3] = test system: 3T3-L1 adipocytes; test: Glucose transport analysis in 3T3-L1 adipocytes (2-deoxyglucose uptake), cells not expressing hP2RY1; format: cell-based, murine; details: basal glucose transport (no insulin), 2-MeSADP 1 μM for 6 hours, mean of 5 experiments
Method: as §1

[4] = test system: L6 myotubes; test: Glucose transport analysis in L6 myotubes (2-deoxyglucose uptake), cells not expressing hP2RY1; format: cell-based; details: basal glucose transport (no insulin), 2-MeSADP 1 μM for 6 hours
Method: as §1

T1 sequence (P47900 whole entry): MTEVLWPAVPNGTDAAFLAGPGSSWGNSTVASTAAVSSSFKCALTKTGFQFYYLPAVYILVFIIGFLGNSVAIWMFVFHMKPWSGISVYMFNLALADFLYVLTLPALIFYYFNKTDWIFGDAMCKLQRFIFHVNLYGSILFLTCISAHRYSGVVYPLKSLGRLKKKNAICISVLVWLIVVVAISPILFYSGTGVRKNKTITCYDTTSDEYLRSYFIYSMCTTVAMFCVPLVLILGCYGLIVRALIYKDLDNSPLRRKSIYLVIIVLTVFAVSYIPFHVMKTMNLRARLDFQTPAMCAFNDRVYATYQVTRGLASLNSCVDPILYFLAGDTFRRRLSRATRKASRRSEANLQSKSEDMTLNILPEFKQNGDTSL

- Fold Change 2 (Basal plus P2RY1 plus 2-MeSADP)/(Basal no P2RY1 no 2-MeSADP), Mean (n = 2) ([1]; basal glucose transport (no insulin), hP2RY1-expressing L6 myotubes, 2-MeSADP 1 μM for 6 hours, mean of 2 experiments): 1.81
- Fold Change 2 (Basal plus P2RY1 plus 2-MeSADP)/(Basal no P2RY1 no 2-MeSADP) ([1]; basal glucose transport (no insulin), hP2RY1-expressing L6 myotubes, 2-MeSADP 1 μM for 6 hours, single experiments): 1.71 and 1.91
- Fold Change 2 (Basal plus P2RY1 plus 2-MeSADP)/(Basal no P2RY1 no 2-MeSADP), Mean +/− SEM (n = 5) ([2]; basal glucose transport (no insulin), hP2RY1-expressing 3T3-L1 adipocytes, 2-MeSADP 1 μM for 6 hours, mean of 5 experiments): 2.11 +/− 0.34
Structure (SMILES): CSc1nc(N)c2ncn([C@@H]3O[C@H](COP(=O)(O)OP(=O)(O)O)[C@@H](O)[C@H]3O)c2n1 [2-MeSADP]
- basal glucose transport, result in words ([1]; L6 myotubes with or without hP2RY1): can be stimulated by a P2RY1 agonist but only when the hP2RY1 is expressed in the cells
- basal glucose transport, result in words ([2]; 3T3-L1 adipocytes with or without hP2RY1): can be stimulated by a P2RY1 agonist but only when the hP2RY1 is expressed in the cells
- Fold Change 1 (Basal plus 2-MeSADP)/(Basal no 2-MeSADP), Mean +/− SEM (n = 5) [3]: 1.07 +/− 0.13
- Fold Change 1 (Basal plus 2-MeSADP)/(Basal no 2-MeSADP), Mean (n = 2) ([4]; mean of 2 experiments): 0.97
- Fold Change 1 (Basal plus 2-MeSADP)/(Basal no 2-MeSADP) ([4]; single experiments): 0.99 and 0.95
